A word on the GI50: it is the concentration at which growth is held to half of that of the control.

These results are taken from patent US10065990B2, “Cyclic peptide compound, and preparation method, pharmaceutical composition and use thereof” (HANGZHOU GUANYU BIO-MEDICAL CO., LTD, priority 2013, dated 2018).

One assay addresses T1, HDAC7 (Homo sapiens, UniProt Q8WUI4).
T1 sequence (Q8WUI4 1-952): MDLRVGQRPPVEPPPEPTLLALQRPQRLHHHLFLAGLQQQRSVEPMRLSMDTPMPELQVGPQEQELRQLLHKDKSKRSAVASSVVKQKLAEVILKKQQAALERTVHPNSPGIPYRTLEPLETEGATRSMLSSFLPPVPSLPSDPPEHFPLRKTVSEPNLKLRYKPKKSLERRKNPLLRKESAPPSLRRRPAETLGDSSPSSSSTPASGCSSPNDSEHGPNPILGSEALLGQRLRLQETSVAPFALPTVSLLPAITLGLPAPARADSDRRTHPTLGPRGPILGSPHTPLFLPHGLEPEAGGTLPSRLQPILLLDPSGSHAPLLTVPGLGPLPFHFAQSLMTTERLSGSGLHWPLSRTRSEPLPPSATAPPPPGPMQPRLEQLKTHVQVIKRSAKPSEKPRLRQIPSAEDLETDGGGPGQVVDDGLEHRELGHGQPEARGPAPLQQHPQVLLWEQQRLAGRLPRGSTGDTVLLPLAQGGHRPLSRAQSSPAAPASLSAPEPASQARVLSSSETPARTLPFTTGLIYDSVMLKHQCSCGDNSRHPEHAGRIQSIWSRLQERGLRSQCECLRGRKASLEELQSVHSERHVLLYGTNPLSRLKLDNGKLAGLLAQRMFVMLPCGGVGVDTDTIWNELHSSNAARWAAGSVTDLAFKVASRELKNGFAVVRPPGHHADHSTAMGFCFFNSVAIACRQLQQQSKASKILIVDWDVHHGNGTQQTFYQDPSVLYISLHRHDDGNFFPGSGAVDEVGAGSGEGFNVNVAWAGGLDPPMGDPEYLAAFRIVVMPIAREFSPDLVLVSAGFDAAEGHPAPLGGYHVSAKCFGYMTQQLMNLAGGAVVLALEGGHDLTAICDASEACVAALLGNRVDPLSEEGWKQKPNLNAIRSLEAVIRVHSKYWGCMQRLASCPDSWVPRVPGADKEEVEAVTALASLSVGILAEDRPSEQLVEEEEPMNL
Briefly: HDAC biochemical activity measurement (fluorescent substrate deacetylation).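 Further: fluorogenic deacetylation assay using acetyl-lysine substrate at 20 µM, enzyme and compound incubated 30 min at 37 °C, then developer added, fluorescence read at 360/460 nm.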 Conditions: HDAC7; 37° C. 30 minutes.

The subject of assay [1] is Bel-7402 (human hepatoma cells). Briefly: MTT cancer cell growth inhibition. Conditions: Homo sapiens, Bel-7402, 72 h, MTT, 72 hours incubation, Bel-7402 cells; read-out: GI50 Bel-7402. Type of assay: cell-based. The gist of the method:
(§1)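 Following overnight attachment of 1500 cells per well, each line was exposed to test drug (final 10^−5 to 10^−10 M) for 72 h in a humidified 37° C., 5% CO2 incubator. Four hours with MTT, DMSO dissolution of formazan, and a 570 nm reading yielded viability data used for GI50.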

The test system of assay [2] is BGC-823 (human gastric cancer cells). Briefly: MTT cancer cell growth inhibition. In kind it is cell-based. The following applies: Homo sapiens, BGC-823, 72 h, MTT, 72 hours incubation; read-out: GI50 BG. Summed up: as §1
Assay [3] relates to K562 (human leukemia cells). Briefly: MTT cancer cell growth inhibition. Conditions: Homo sapiens, K562, 72 h, MTT, 72 hours incubation, K562 cells; read-out: GI50 K562. Type of assay: cell-based. Summed up:
as §1

Assay [4] relates to DU145 (human prostate cancer cells). In words: MTT cancer cell growth inhibition. Type of assay: cell-based. The following applies: Homo sapiens, DU-145, 72 h, MTT, 72 hours incubation; read-out: GI50 Du1. The gist of the method: as §1
Assay [5] has as its system MOLT-4 (human acute lymphoblastic leukemia cells). Briefly: MTT cancer cell growth inhibition. Type of assay: cell-based. Conditions: Homo sapiens, MOLT-4, 72 h, MTT, 72 hours incubation; read-out: GI50 Mol. The gist of the method:
as §1

Assay [6] has as its system MCF-7 (human breast cancer cells). In words: MTT cancer cell growth inhibition. Type of assay: cell-based. The following applies: Homo sapiens, MCF7, 72 h, 72 hours incubation, read-out: GI50 MCF. The gist of the method:
as §1

Assay [7] deals with SGC-7901 (human gastric cancer cells). Briefly: MTT cancer cell growth inhibition. Conditions: Homo sapiens, SGC-7901, 72 h, MTT, 72 hours incubation, SGC-7901 cells; read-out: GI50 SGC-7901. Type of assay: cell-based. Summed up:
as §1

Assay [8] relates to A549 (human lung cancer cells). Briefly: MTT cancer cell growth inhibition. Conditions: Homo sapiens, A549, 72 h, MTT, 72 hours incubation; read-out: GI50 A54. Type of assay: cell-based. The gist of the method: as §1
Assay [9] deals with N-87 (human gastric cancer cells). In words: MTT cancer cell growth inhibition. Type of assay: cell-based. The following applies: Homo sapiens, 72 h, MTT, 72 hours incubation, N-87 cells; read-out: GI50 N-87. Summed up:
as §1

Assay [10] deals with PANC-1 (Pac-1, human pancreatic cancer cells). Briefly: MTT cancer cell growth inhibition. Type of assay: cell-based. Conditions: Homo sapiens, PANC-1, 72 h, MTT, 72 hours incubation; read-out: GI50 PAN. Summed up: as §1
Assay [11] concerns HCC827 (human non-small cell lung cancer cells). In words: MTT cancer cell growth inhibition. Type of assay: cell-based. The following applies: Homo sapiens, HCC827, 72 h, MTT, 72 hours incubation, HCC827 cells; read-out: GI50 HCC827. Summed up:
as §1

Assay [12] deals with HT1080 (human fibrosarcoma cells). In words: MTT cancer cell growth inhibition. In kind it is cell-based. Conditions: Homo sapiens, HT-1080, 72 h, MTT, 72 hours incubation; read-out: GI50 HT1. The gist of the method: as §1
Assay [13] deals with Hela (human cervical cancer cells). In words: MTT cancer cell growth inhibition. Type of assay: cell-based. Conditions: Homo sapiens, HeLa, 72 h, MTT, 72 hours incubation; read-out: GI50 Hela. The gist of the method: as §1
Assay [14] deals with lncap (prostate cancer cells). Briefly: MTT cancer cell growth inhibition. In kind it is cell-based. Conditions: Homo sapiens, LNCaP, 72 h, MTT, 72 hours incubation; read-out: GI50 lnca. Summed up: as §1
The test system of assay [15] is KBM-5 (human chronic myelogenous leukemia). In words: MTT cancer cell growth inhibition. In kind it is cell-based. Conditions: Homo sapiens, KBM5, 72 h, MTT, 72 hours incubation, KBM-5 cells; read-out: GI50 KBM-5. The gist of the method:
as §1

In assay [16] the test system is U937 (human leukemia cells). In words: MTT cancer cell growth inhibition. In kind it is cell-based. The following applies: Homo sapiens, U-937, 72 h, MTT, 72 hours incubation; read-out: GI50 U93. The gist of the method:
as §1

The subject of assay [17] is KBM5-T315I (human chronic myelogenous leukemia). Briefly: MTT cancer cell growth inhibition. The following applies: Homo sapiens, 72 h, MTT, 72 hours incubation, KBM5-T315I cells; read-out: GI50 KBM5-T315I. Type of assay: cell-based. The gist of the method: as §1
In assay [18] the test system is MDA-MB-231 (breast cancer cells). Briefly: MTT cancer cell growth inhibition. In kind it is cell-based. Conditions: Homo sapiens, MDA-MB-231, 72 h, read-out: GI50 MDA-MB-231, MTT, 72 hours incubation, MDA-MB-231 cells. The gist of the method: as §1
Assay [19] concerns Huh-7 (human hepatoma cells). In words: MTT cancer cell growth inhibition. Type of assay: cell-based. The following applies: Homo sapiens, Huh-7, 72 h, MTT, 72 hours incubation, Huh-7 cells; read-out: GI50 Huh-7. The gist of the method: as §1
For assay [20], the system named is H1975 (non-small cell lung adenocarcinoma). In words: MTT cancer cell growth inhibition. Type of assay: cell-based. The following applies: Homo sapiens, NCI-H1975, 72 h, MTT, 72 hours incubation, H1975 cells; read-out: GI50 H1975. Summed up: as §1

Turning to `C/C=C1\NC(=O)c2cccc(n2)CNC(=O)C[C@@H](/C=C/CCS)OC(=O)[C@H](CCCCNC(=O)OCC2c3ccccc3-c3ccccc32)NC1=O` [Compound 119], the “IC50 HDAC7” value against HDAC7 is given as “no activity”. Besides, the GI50 in [1] was determined as 37 nM; in [2], 40 nM; in assay [3], 36 nM; in [4], 50 nM; in assay [5], 90 nM; in [6] it was 50 nM. In addition, the GI50 was 34 nM in assay [7]; 60 nM in [8]; 38 nM in assay [9]; 40 nM in [10]; 37 nM in [11]; 90 nM in assay [12]. For the same compound, the GI50 in assay [13] is 90 nM; in assay [14], 90 nM; in [15] it was 62 nM; in assay [16] it was 60 nM; in [17], 28 nM; in assay [18] it was 27 nM. Further, the GI50 in assay [19] stood at 26 nM; in assay [20], 38 nM.
Consider `C/C=C1\NC(=O)c2ncc(F)c(n2)CNC(=O)C[C@@H](/C=C/CCSC(C)=O)OC(=O)[C@H](C(C)C)NC1=O` [Compound 97], for which the “IC50 HDAC7” value on HDAC7 is “no activity”. The GI50 stood at 59 nM in assay [1]; 30 nM in assay [2]; 29 nM in assay [3]; 10 nM in assay [4]; 20 nM in [5]; 30 nM in assay [6]. For the same compound, the concentration for 50% growth inhibition (GI50) in assay [7] was determined as 24 nM; in assay [8] it was 50 nM; in assay [9] it was 31 nM; in assay [10], 70 nM; in assay [11] it was 39 nM; in assay [12], 70 nM. Also, the GI50 was found to be 90 nM in assay [13]; 20 nM in assay [14]; 93 nM in assay [15]; 30 nM in [16]; 26 nM in [17]; 31 nM in assay [18]. Further, the results for the GI50 in [19] and in [20] were 13 nM and 42 nM, respectively.
As for `C/C=C1\NC(=O)c2cc(F)cc(n2)CNC(=O)C[C@@H](/C=C/CCS)OC(=O)[C@H](C)NC1=O` [Compound 113], the “IC50 HDAC7” value against HDAC7 is “no activity”. For the same compound, the GI50 in assay [1] stood at 34 nM; in [2], 70 nM; in assay [3], 47 nM; in assay [4] it was 50 nM; in assay [5] it was 100 nM; in [6], 50 nM. In addition, the GI50 in [7] was found to be 95 nM; in [8] it was 60 nM; in assay [9], 42 nM; in assay [10], 70 nM; in assay [11], 48 nM; in assay [12], 100 nM. Moreover, the GI50 in [13] stood at 80 nM; in assay [14], 80 nM; in assay [15], 36 nM; in assay [16] it was 60 nM; in [17], 51 nM; in [18], 31 nM. Also, the GI50 stood at 21 nM in assay [19] and 24 nM in assay [20].
Turning to `C/C=C1\NC(=O)c2ccc(F)c(n2)CNC(=O)C[C@@H](/C=C/CCSC(=O)CCCCCC)OC(=O)[C@H](C(C)C)NC1=O` [Example 35], on HDAC7, the “IC50 HDAC7” value was “no activity”. The GI50 in assay [1] worked out at 51 nM; in [2] it was 60 nM; in assay [3] it was 26 nM; in assay [4] it was 20 nM; in assay [5] it was 40 nM; in [6] it was 50 nM. Also, the GI50 in assay [7] is 61 nM; in assay [8] it was 60 nM; in assay [9], 63 nM; in [10], 50 nM; in assay [11], 51 nM; in assay [12], 50 nM. For the same compound, the GI50 worked out at 70 nM in assay [13]; 40 nM in [14]; 75 nM in assay [15]; 30 nM in assay [16]; 59 nM in assay [17]; 46 nM in assay [18]. The GI50 in assay [19] turned out to be 46 nM; in assay [20], 38 nM.
